Data taken from patent publication US9416347B2, “Method of treating bacterial contamination in a microalgae culture with pH shock” (Heliae Development LLC, priority 2014, dated 2016).
Structures can show the parent of a compound that is named as a salt. Where two headings read alike, the source gives them in different places.

What was measured:
[1] = test system: Chlorella sp.; conditions: culture at 1,029 mg/L acetate, pH 3.5 for 15 minutes, returned to 7.5 with 2 M NaOH
Procedure: The pH treated culture samples were maintained at the culture pH of 3.5 for 15 minutes before returning the culture pH to 7.5 by adding 2 M NaOH.
The pH treatment was applied directly into the culture, without previous concentration or subsequent dilution through inoculation into a fresh media. All cultures were incubated with shaking at 100 rpm in 5% carbon dioxide and 25° C. […] 100 μM photon/m^2 s of light was also provided to create mixotrophic growth conditions. The cultures were monitored for 4 days (96 hours with dry weight samples taken at 0, 48, and 96 hours). Residual acetate analyses were carried at the end of the experiment.

[2] = test system: Chlorella sp.; conditions: for cell dry weight: second pH treatment 7.5 to 3.5 with HCl (18%) for 15 minutes, raised with 4 M NaOH
[3] = test system: Chlorella sp.; conditions: pH lowered from about 7.5 to 3.5 for 15 minutes, raised back with 5M NaOH
Procedure: The first 400 ml culture was maintained as an untreated control at a pH of about 7.5. […] The pH treatments were applied directly to the cultures, without previous concentration of the microalgae or subsequent dilution through inoculation into fresh culture media. All cultures were incubated with shaking at 100 rpm in 5% carbon dioxide and 25° C. […] 100 μM photon/m^2 s of light was also provided to create mixotrophic growth conditions. The cultures were monitored for 4 days (96 hours with dry weight samples taken at 0, 48, and 96 hours). Live bacteria count samples were taken at 0 and 48 hours, and quantified using aerobic colony forming units (CFU) obtained from plate counts utilizing Petrifilm available from 3M (St. Paul, Minn.). A bacteria to microalgae ratio was also quantified using guava flow cytometry.

[4] = test system: Chlorella; conditions: pH 3.5 with HCl (37%) for 15 minutes, open raceway pond
[5] = test system: bacteria attached to Chlorella
Source text: (§1) Some bacteria in the microalgae culture may attach to the cell wall of the microalgae, eventually lysing the cell wall of the microalgae and killing the microalgae. […] An example of bacteria known to attach to microalgae is Vampirovibrio chlorellavorus.

[6] = test system: live bacteria in Chlorella culture; conditions: for bacteria count: pH 3.5 with HCl (37%) for 15 minutes, open raceway pond
[7] = test system: Cytophaga sp.; conditions: pH treated versus untreated culture, over the life of the cultures
[8] = test system: Vampirovibrio chlorellavorus; conditions: culture receiving the second pH treatment, 85% before treatment
Source text: as §1
Samples were taken every two days to determine the cell dry weight (g/L) of the cultures.

Cl [HCl, hydrochloric acid]
Cell Dry Weight ([1]; 0 h): 0.89 ± 0.01 g/L
Cell Dry Weight ([1]; 48 h): 1.88 ± 0.04 g/L
Cell Dry Weight ([1]; 96 h): 2.58 ± 0.01 g/L
productive life of culture ([2]; culture that received one pH treatment): approximately 14 days
productive life of culture (lasted until day, then discarded) ([2]; culture that received two pH treatments): ≥ 20 days
cell dry weight ([2]; 0 h): 1.05 (g/L)
cell dry weight ([2]; 48 h): 2.79 g/L
cell dry weight ([2]; 96 h): 3.87 g/L
cell dry weight ([2]; 144 h): 4.79 g/L
cell dry weight ([3]; 0 h): 0.80 ± 0.03 g/L
cell dry weight ([3]; 48 h): 2.54 ± 0.00 g/L
cell dry weight ([3]; 96 h): 3.78 ± 0.00 g/L
cell dry weight ([4]; raised to 8.5 with NaOH, 0 h): 1.2 g/L
cell dry weight ([4]; 11 h): 1.4 g/L
cell dry weight ([4]; 24 h): 1.6 g/L
cell dry weight ([4]; 35 h): 2.2 g/L
cell dry weight ([4]; 48 h): 2.5 g/L
cell dry weight ([4]; 59 h): 3.5 g/L
cell dry weight ([4]; 72 h): 4.0 g/L
cell dry weight ([4]; 83 h): 4.8 g/L
cell dry weight ([4]; 96 h): 5.1 g/L
cell dry weight ([4]; 107 h): 5.4 g/L
cell dry weight ([4]; 120 h): 5.7 g/L
cell dry weight ([4]; 131 h): 6.1 g/L
cell dry weight ([4]; 144 h): 6.1 g/L
cell dry weight ([4]; 155 h (after partial harvest)): 1.9 g/L
cell dry weight ([4]; 168 h): 1.8 g/L
time bacterial attachment remained below 10% ([5]; pH treated culture): over 100 hours
bacterial attachment in the pH treated culture ([5]; within 12 hours, drop from about 50%): under 10%
total bacteria live count lower than the untreated culture ([6]; immediately following treatment): approximately 2 logs
bacteria count ([6]; 0 h): 4.00E+04 CFU
bacteria count ([6]; 24 h): 1.50E+07 CFU
bacteria count ([6]; 48 h): 1.20E+08 CFU
bacteria count ([6]; 72 h): 2.20E+08 CFU
bacteria count ([6]; 96 h): 1.30E+08 CFU
bacteria count ([6]; 120 h): 1.20E+08 CFU
bacteria count ([6]; 144 h): 1.50E+08 CFU
Cytophaga sp. detection by qPCR [7]: detected in the untreated culture only
bacteria attachment level ([8]; day 4 (96 h)): about 4.5%
bacteria attachment ([8]; within 48 hours): 0%
